Laboratory results reported in patent publication US20190169221A1, “SUBSTITUTED NUCLEOSIDES, NUCLEOTIDES AND ANALOGS THEREOF” (Janssen BioPharma, Inc., priority 2016, published 2019).

What was measured:
[1] = system: Dengue virus type 2 strain New Guinea C (NG-C); test: Dengue viral assay (cytopathic effect, Huh-7.5 cells); type: cell-based; conditions: Huh7.5, Dengue virus type 2 (NG-C strain), read-out: Dengue NGC EC50
Method: (§1) The Dengue virus type 2 strain New Guinea C (NG-C) and the Dengue virus type 4 strain H241 were purchased from ATCC (Manassas, Va.; item numbers VR-1584 and VR-1490, respectively). The Zika virus strain MR766 was purchased from ATCC (item #VR-1838) and the Zika virus strain IbH 30656 was purchased from BEI Resources (Manassas, Va.; item number NR-500066). 24 h prior to dosing, Huh-7.5 cells were plated in 96 well plates at a density of 1.5×10^5/mL in DMEM medium supplemented with 10% fetal bovine serum, 1% HEPES buffer, 1% Penicillin/Streptomycin and 1% non-essential amino acids (all Mediatech, Manassas, Va.). At the day of infection, serially diluted compounds were added to cells and incubated for 24 h. After the end of the 24 h pre-incubation period, cells were infected with either Dengue virus type 2 NG-C, Dengue virus type 4 H241, Zika virus strain MR766 or Zika virus strain IbH 30656. The virus inoculum was selected to cause 80-90% cytopathic effect in four (Zika) to five (Dengue) days. Infected cells were incubated for four to five days at 37° C., 5% CO2. To develop the assay, 100 μL media was replaced with 100 μl CellTiter-Glo® reagent (Promega, Madison, Wis.) and incubated for 10 mins at R.T. Luminescence was measured on a Victor ×3 multi-label plate reader. Potential compound cytotoxicity was determined using uninfected parallel cultures.

[2] = system: Huh-7 cells containing the self-replicating, subgenomic HCV replicon; test: HCV replicon assay; type: cell-based; conditions: Hepatitis C virus; Huh-7 replicon cells, 72 h, luciferase
Zika virus = test: Zika viral assay (cytopathic effect, Huh-7.5 cells); type: cell-based; conditions: Huh7.5, read-out: Zika EC50
Method: as §1

Human rhinovirus 1B = test: Picornavirus / enterovirus assay, HRV 1B (HeLa-OHIO cells); type: cell-based; conditions: Rhinovirus A; HeLa-OHIO cells, 33° C.; read-out: HRV 1B EC50
Human rhinovirus 16 = test: Enterovirus assay, HRV 16 (HeLa-OHIO cells); type: cell-based; conditions: Rhinovirus A
Method: (§2) HeLa OHIO cells were purchased from Sigma Aldrich (St Louis, Mo.) and cultured in MEM with Glutamax (Gibco cat. #41090) supplemented with 10% FBS (Mediatech cat. #35-011-CV) and 1% penicillin/streptomycin (Mediatech cat. #30-002-CI), at 37° C. with 5% CO2. RD cells were purchased from ATCC (Manassas, Va.) and cultured in DMEM, supplemented with 10% FBS (Mediatech cat. #35-011-CV) and 1% penicillin/streptomycin (Mediatech cat. #30-002-CI), at 37° C. with 5% CO2. For […]68 and CVB3, HeLa-OHIO cells were plated at a density of 1.5×10^5 cells per mL (1.5×10^4 cells per well) in assay media (MEM without phenol red or L-glutamine (Gibco cat. #51200) supplemented with 1% FBS, 1% penicillin/streptomycin (Mediatech cat. #30-002-CI) and 1% Glutamax (Gibco cat. #35050)) in clear-bottom 96 well plates. For EV71, RD cells were plated at a density of 5×10^4 cells per mL (5000 cells per well) in assay media (DMEM supplemented with 2% FBS and 1% penicillin/streptomycin). After 24 h, media was removed and replaced with serially diluted compounds in assay media. […] After 2-6 days, cell viability was measured using CellTiter Glo Luminescent Cell Viability Assay (Promega cat. #G7572). […] Plates were incubated at R.T. for 5 mins, then luminescence was measured using a Perkin Elmer multilabel counter Victor3V. EC50 values were determined using XLFit.

Human rhinovirus 14 = test: Enterovirus assay, HRV 14 (HeLa-OHIO cells); type: cell-based; conditions: Rhinovirus B
Human rhinovirus 75 = test: Enterovirus assay, HRV 75 (HeLa-OHIO cells); type: cell-based; conditions: Rhinovirus A
Method: as §2

CVB3 = test: Enterovirus assay, CVB3 (HeLa-OHIO cells); type: cell-based, Coxsackie virus 3B; conditions: Enterovirus B, 37° C.
Method: as §2

EV71 = test: Enterovirus assay, EV71 (RD cells); type: cell-based; conditions: Enterovirus A, 37° C.
Method: HeLa OHIO cells were purchased from Sigma Aldrich (St Louis, Mo.) and cultured in MEM with Glutamax (Gibco cat. #41090) supplemented with 10% FBS (Mediatech cat. #35-011-CV) and 1% penicillin/streptomycin (Mediatech cat. #30-002-CI), at 37° C. with 5% CO2. RD cells were purchased from ATCC (Manassas, Va.) and cultured in DMEM, supplemented with 10% FBS (Mediatech cat. #35-011-CV) and 1% penicillin/streptomycin (Mediatech cat. #30-002-CI), at 37° C. with 5% CO2. For […]68 and CVB3, HeLa-OHIO cells were plated at a density of 1.5×10^5 cells per mL (1.5×10^4 cells per well) in assay media (MEM without phenol red or L-glutamine (Gibco cat. #51200) supplemented with 1% FBS, 1% penicillin/streptomycin (Mediatech cat. #30-002-CI) and 1% Glutamax (Gibco cat. #35050)) in clear-bottom 96 well plates. For EV71, RD cells were plated at a density of 5×10^4 cells per mL (5000 cells per well) in assay media (DMEM supplemented with 2% FBS and 1% penicillin/streptomycin). After 24 h, media was removed and replaced with serially diluted compounds in assay media. For EC50 measurements, cells were infected in 100 μL assay media with a virus inoculum sufficient to obtain to cause 80-90% cytopathic effect. After 2-6 days, cell viability was measured using CellTiter Glo Luminescent Cell Viability Assay (Promega cat. #G7572). Cells infected with EV-71, EV-68 and CVB3 were cultured at 37° C., while cells infected with hV1b, hV-16, hV-75 were cultured at 33° C. 100 μL media was removed from each well and 100 μL CellTiter Glo reagent was added. Plates were incubated at R.T. for 5 mins, then luminescence was measured using a Perkin Elmer multilabel counter Victor3V. EC50 values were determined using XLFit.

[3] = molecular target: human rhinovirus 16 polymerase (HRV16pol) (Human rhinovirus 16, UniProt Q82122); test: Picornavirus polymerase inhibition assay; type: biochemical; conditions: triphosphates, read-out: Viral Polymerase Inhibition IC50 Picornavirus
Method: The enzyme activity of human rhinovirus 16 polymerase (HRV16pol) was measured as an incorporation of tritiated NMP into acid-insoluble RNA products. hV16pol assay reactions contained […] recombinant enzyme, 50 nM heteropolymeric RNA, about 0.5 μCi tritiated NTP, 0.1 mM of competing cold NTP, 40 mM Tris-HCl (pH 7.0), […] dithiothreitol and 0.5 mM MgCl2. Standard reactions were incubated for 2.5 h at 30° C., in the presence of increasing concentration of inhibitor. At the end of the reaction, RNA was precipitated with 10% TCA and acid-insoluble RNA products were filtered on a size exclusion 96-well plate. After washing of the plate, scintillation liquid was added and radiolabeled RNA products were detected using standard procedures with a Trilux Microbeta scintillation counter. The compound concentration at which the enzyme-catalyzed rate was reduced by 50% (IC50) was calculated by fitting the data to a non-linear regression (sigmoidal).

Dengue viral polymerase = Dengue viral polymerase (Dengue virus type 2, UniProt P14340); test: biochemical; conditions: triphosphates; read-out: Viral Polymerase Inhibition IC50 Dengue
NS5B-BK (Delta-21) = NS5B-BK (Delta-21) (Hepatitis C virus genotype 1b, UniProt P26663); test: biochemical; parameters: species or system HCV
Sequence of NS5B-BK (Delta-21) (P26663 2420-2989 limits assumed): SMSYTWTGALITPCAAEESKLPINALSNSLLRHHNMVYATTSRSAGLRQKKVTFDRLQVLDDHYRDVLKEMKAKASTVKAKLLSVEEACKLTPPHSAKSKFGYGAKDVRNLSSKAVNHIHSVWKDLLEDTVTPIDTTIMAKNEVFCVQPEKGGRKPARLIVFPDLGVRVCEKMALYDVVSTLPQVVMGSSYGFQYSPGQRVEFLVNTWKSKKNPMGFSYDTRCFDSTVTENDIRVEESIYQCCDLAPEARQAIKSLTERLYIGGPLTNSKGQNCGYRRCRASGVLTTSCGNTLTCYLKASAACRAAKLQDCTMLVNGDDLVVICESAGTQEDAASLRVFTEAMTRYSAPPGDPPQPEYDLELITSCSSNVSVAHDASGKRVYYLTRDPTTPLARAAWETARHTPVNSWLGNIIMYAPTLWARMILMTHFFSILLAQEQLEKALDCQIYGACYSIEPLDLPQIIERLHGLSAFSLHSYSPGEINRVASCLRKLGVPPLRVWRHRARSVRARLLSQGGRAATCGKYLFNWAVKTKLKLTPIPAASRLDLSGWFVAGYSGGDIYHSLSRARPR

Sequence of human rhinovirus 16 polymerase (HRV16pol) (Q82122 1694-2153 limits assumed): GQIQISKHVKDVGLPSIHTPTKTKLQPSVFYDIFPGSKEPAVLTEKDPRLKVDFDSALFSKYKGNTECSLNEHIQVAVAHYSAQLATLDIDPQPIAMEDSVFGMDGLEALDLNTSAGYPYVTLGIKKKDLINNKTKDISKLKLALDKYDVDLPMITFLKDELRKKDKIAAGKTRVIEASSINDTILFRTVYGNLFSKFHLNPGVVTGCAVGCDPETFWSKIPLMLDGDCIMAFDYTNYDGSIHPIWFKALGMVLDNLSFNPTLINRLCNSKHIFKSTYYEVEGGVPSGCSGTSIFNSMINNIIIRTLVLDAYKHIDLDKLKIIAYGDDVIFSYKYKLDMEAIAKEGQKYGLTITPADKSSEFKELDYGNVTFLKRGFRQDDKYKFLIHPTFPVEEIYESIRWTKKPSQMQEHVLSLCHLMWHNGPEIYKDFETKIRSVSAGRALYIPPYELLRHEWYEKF

Row | Structure (SMILES) | EC50 [1] | EC50 (Human rhinovirus 1B) | IC50 [3] | IC50 (Dengue viral polymerase) | IC50 (NS5B-BK (Delta-21)) | further results
1 | C#C[C@]1(O)[C@H](n2cnc3c(N)ncnc32)O[C@](F)(CO)[C@H]1O [Compound 1, (2S,3S,4R,5R)-5-(6-amino-9H-purin-9-yl)-4-ethynyl-2-fluoro-2-(hydroxymethyl)tetrahydrofuran-3,4-diol] | < 3000 nM | < 3000 nM | – | – | – | EC50 [2]: < 3 µM; EC50 (Zika virus): < 3000 nM; EC50 (Human rhinovirus 16): < 3000 nM; EC50 (Human rhinovirus 14): < 3000 nM; EC50 (Human rhinovirus 75): < 3000 nM; EC50 (CVB3): < 3000 nM; EC50 (EV71): < 3000 nM
2 | C#C[C@]1(O)[C@H](n2cc(F)c3c(N)ncnc32)O[C@](F)(CO)[C@H]1O [Compound 7, (2S,3S,4R,5R)-5-(4-amino-5-fluoro-7H-pyrrolo[2,3-d]pyrimidin-7-yl)-4-ethynyl-2-fluoro-2-(hydroxymethyl)tetrahydrofuran-3,4-diol] | < 3000 nM | < 3000 nM | – | – | – | EC50 (EV71): < 3000 nM
3 | C[C@]1(O)[C@H](n2cnc3c(N)ncnc32)O[C@](F)(CO)[C@H]1O [Compound 13, (2S,3S,4R,5R)-5-(6-amino-9H-purin-9-yl)-2-fluoro-2-(hydroxymethyl)-4-methyltetrahydrofuran-3,4-diol] | > 100000 nM | 3000 to 30000 nM | – | – | – | EC50 [2]: 3 to 30 µM
4 | C[C@]1(F)[C@H](n2cnc3c(N)nc(N)nc32)O[C@](F)(CO)[C@H]1O [Compound 15, (2S,3S,4R,5R)-5-(2,6-diamino-9H-purin-9-yl)-2,4-difluoro-2-(hydroxymethyl)-4-methyltetrahydrofuran-3-ol] | > 100000 nM | 30000 to 100000 nM | – | – | – | EC50 [2]: > 100 µM
5 | C=C=C[C@@]1(O)[C@H](O)[C@@H](COP(=O)(O)OP(=O)(O)OP(=O)(O)O)O[C@H]1n1cnc2c(N)ncnc21 [Compound 25] | – | – | 3 to 30 µM | 3 to 30 µM | < 3 µM | –
6 | C#C[C@@]1(O)[C@H](O)[C@@H](CO)O[C@H]1c1ccc2c(N)ncnn12 [Compound 26, (2S,3R,4R,5R)-2-(4-aminopyrrolo[2,1-f][1,2,4]triazin-7-yl)-3-ethynyl-5-(hydroxymethyl)tetrahydrofuran-3,4-diol] | < 3000 nM | < 3000 nM | – | – | – | EC50 (EV71): < 3000 nM
7 | C#C[C@@]1(O)[C@H](O)[C@@H](COP(=O)(O)OP(=O)(O)OP(=O)(O)O)O[C@H]1n1cnc2c(=O)[nH]cnc21 [Compound 35] | – | – | > 100 µM | < 3 µM | < 3 µM | –
8 | C#C[C@]1(OC(=O)C(C)C)[C@H](n2cnc3c(N)ncnc32)O[C@](F)(COC(=O)C(C)C)[C@H]1OC(=O)C(C)C [Compound 43, (2S,3S,4R,5R)-5-(6-amino-9H-purin-9-yl)-4-ethynyl-2-fluoro-2-((isobutyryloxy)methyl)tetrahydrofuran-3,4-diylbis(2-methylpropanoate)] | < 3000 nM | < 3000 nM | – | – | – | EC50 (EV71): < 3000 nM
9 | C#C[C@]1(O)[C@H](n2cc(C#N)c3c(N)ncnc32)O[C@](F)(COP(=O)(O)OP(=O)(O)OP(=O)(O)O)[C@H]1O [Compound 45] | – | – | < 3 µM | < 3 µM | < 3 µM | –
10 | C#C[C@]1(O)[C@H](n2cc(C(N)=O)c3c(N)ncnc32)O[C@](F)(COP(=O)(O)OP(=O)(O)OP(=O)(O)O)[C@H]1O [Compound 50] | – | – | < 3 µM | < 3 µM | 3 to 30 µM | –
11 | C#C[C@]1(O)[C@H](n2cc(F)c3c(N)ncnc32)O[C@](F)(COP(=O)(O)OP(=O)(O)OP(=O)(O)O)[C@H]1O [Compound 51] | – | – | < 3 µM | < 3 µM | < 3 µM | –
12 | C#C[C@@]1(O)[C@H](O)[C@@H](COP(=O)(O)OP(=O)(O)OP(=O)(O)O)O[C@H]1c1ccc2c(N)ncnn12 [Compound 52] | – | – | < 3 µM | < 3 µM | < 3 µM | –
13 | C#C[C@@]1(O)[C@H](O)[C@@H](COP(=O)(O)OP(=O)(O)OP(=O)(O)O)O[C@H]1c1cnc2c(N)ncnn12 [Compound 53] | – | – | < 3 µM | 3 to 30 µM | < 3 µM | –
14 | C#C[C@@]1(F)[C@H](O)[C@@H](COP(=O)(O)OP(=O)(O)OP(=O)(O)O)O[C@H]1c1cnc2c(N)ncnn12 [Compound 54] | – | – | 30 to 100 µM | 30 to 100 µM | < 3 µM | –
15 | C#C[C@]1(O)[C@H](n2cnc3c(=O)[nH]cnc32)O[C@](F)(COP(=O)(O)OP(=O)(O)OP(=O)(O)O)[C@H]1O [Compound 56] | – | – | < 3 µM | 3 to 30 µM | < 3 µM | –
16 | C#C[C@]1(O)[C@H](n2cnc3c(N)nc(F)nc32)O[C@](F)(COP(=O)(O)OP(=O)(O)OP(=O)(O)O)[C@H]1O [Compound 57] | – | – | < 3 µM | < 3 µM | < 3 µM | –
17 | C#C[C@@]1(O)[C@H](O)[C@@H](COP(=O)(O)OP(=O)(O)OP(=O)(O)O)O[C@H]1n1cc(F)c2c(N)ncnc21 [Compound 58] | – | – | < 3 µM | < 3 µM | < 3 µM | –
